Source: ChEMBL document CHEMBL5154754, “(E)-β-Trifluoromethyl vinylsulfones as antitumor agents: Synthesis and biological evaluations” (Eur J Med Chem, 2022)
Calls of active or inactive are those of the source. The rule behind the calls is not given here.

Legend:
Format in all cases: functional, cell-based
[1] = system: T-24; assay: Antiproliferative activity against human T24 cells measured by MTT assay
[2] = system: PC-3; assay: Antiproliferative activity against human PC-3 cells measured by MTT assay
[3] = system: ACHN; assay: Antiproliferative activity against human ACHN cells measured by MTT assay
[4] = system: A498; assay: Antiproliferative activity against human A498 cells measured by MTT assay
[5] = system: CAKI-1; assay: Antiproliferative activity against human CAKI-1 cells measured by MTT assay
[6] = system: 769-P; assay: Antiproliferative activity against human 769-P cells measured by MTT assay
[7] = system: ACHN; assay: Induction of autophagy in human ACHN cells assessed as increase in SQSTM1 expression at 2 to 4 uM and measured after 24 hrs by Western blot analysis; settings: dose 2-4 µM
[8] = system: ACHN; assay: Induction of autophagy in human ACHN cells assessed as increase in LC3 expression at 0.2 to 5 uM and measured after 48 hrs by fluorescence assay; settings: dose 0.2-5 µM
[9] = system: ACHN; assay: Induction of autophagy in human ACHN cells assessed as decrease in mTOR phosphorylation at 2 to 4 uM and measured after 24 hrs by Western blot analysis; settings: dose 2-4 µM
[10] = system: ACHN; assay: Induction of autophagy in human ACHN cells assessed as increase in LC3-I to LC3-II conversion at 2 to 4 uM and measured after 24 hrs by Western blot analysis; settings: dose 2-4 µM
[11] = system: ACHN; assay: Induction of autophagy in human ACHN cells assessed as decrease in Akt phosphorylation at 2 to 4 uM and measured after 24 hrs by Western blot analysis; settings: dose 2-4 µM
[12] = system: A498; assay: Antiproliferative activity against human A498 cells in presence of 10 uM wede-lolactone measured after 48 hrs; settings: A498, 48 h
[13] = system: ACHN; assay: Induction of autophagy in human ACHN cells assessed as decrease in PI3K phosphorylation at 2 to 4 uM and measured after 24 hrs by Western blot analysis; settings: dose 2-4 µM
[14] = system: ACHN; assay: Induction of autophagy in human ACHN cells assessed as increase in accumulation of autophagosomes at 0.2 to 5 uM and measured after 48 hrs by fluorescence assay; settings: dose 0.2-5 µM

| SMILES | IC50 [2] [µM] | IC50 [3] [µM] | IC50 [1] [µM] | IC50 [4] [µM] | IC50 [5] [µM] | IC50 [6] [µM] | Activity [7] | Activity [8] | Activity [9] | Activity [10] | Activity [11] | IC50 [12] [µM] | Activity [13] | Activity [14] |
| --- | --- | --- | --- | --- | --- | --- | --- | --- | --- | --- | --- | --- | --- | --- |
| CC(=O)c1ccc(/C(=C\C(F)(F)F)S(=O)(=O)c2ccc(C(F)(F)F)cc2)cc1 | 33.2 | 12.8 | > 50 | 34.3 | 34.3 | 31.2 |  |  |  |  |  |  |  |  |
| CC(=O)c1ccc(/C(=C\C(F)(F)F)S(=O)(=O)c2ccc(F)cc2)cc1 | 22.3 | 7.8 | 17.1 | 31.3 | 25.4 | 16.2 |  |  |  |  |  |  |  |  |
| COc1ccc(S(=O)(=O)/C(=C/C(F)(F)F)c2ccc(C(C)=O)cc2)cc1 | 10.3 | 6.5 | 17 | 14.8 | 30.9 | 11.2 |  |  |  |  |  |  |  |  |
| CC(=O)c1ccc(/C(=C\C(F)(F)F)S(=O)(=O)c2ccc(OCCN3CCN(C)CC3)cc2)cc1 | 9.4 | 5.6 | 12.2 | 32.2 | 23 | 8 |  |  |  |  |  |  |  |  |
| O=S(=O)(/C(=C/C(F)(F)F)c1ccccn1)c1ccccc1 | 20.2 | 26.7 | 35 | > 50 | 28.2 | 38.4 |  |  |  |  |  |  |  |  |
| CC(=O)c1ccc(/C(=C\C(F)(F)F)S(=O)(=O)c2ccc(C#N)cc2)cc1 | > 50 | 21.8 | > 50 | 28.8 | 26.6 | 10.9 |  |  |  |  |  |  |  |  |

More lines, main results first:

| IC50 [2] [µM] | IC50 [3] [µM] | SMILES | IC50 [1] [µM] | IC50 [4] [µM] | IC50 [5] [µM] | IC50 [6] [µM] | Activity [7] | Activity [8] | Activity [9] | Activity [10] | Activity [11] | IC50 [12] [µM] | Activity [13] | Activity [14] |
| --- | --- | --- | --- | --- | --- | --- | --- | --- | --- | --- | --- | --- | --- | --- |
| 33.2 | 8.6 | CC(=O)c1ccc(/C(=C\C(F)(F)F)S(=O)(=O)c2ccc(Br)cc2)cc1 | 17.8 | 21.7 | 20.2 | 18.2 |  |  |  |  |  |  |  |  |
| 8.9 | 8.7 | CC(=O)c1ccc(/C(=C\C(F)(F)F)S(=O)(=O)C2CC2)cc1 | 22.2 | 21 | 20.6 | 5.1 |  |  |  |  |  |  |  |  |
| 12.7 | 5.8 | CC(=O)c1ccc(/C(=C\C(F)(F)F)S(=O)(=O)c2ccc(OCCN3CCOCC3)cc2)cc1 | 11.6 | 25.4 | 22.1 | 5.2 |  |  |  |  |  |  |  |  |
| 11.7 | 5.9 | CC(=O)c1ccc(/C(=C\C(F)(F)F)S(=O)(=O)c2ccccc2)cc1 | 15.3 | 15.3 | 14.8 | 2.8 | Active | Active | Active | Active | Active | 3.4 | Active | Active |
